Assays:
Assay type in all cases: in vivo
[1] = test system: POLCO: buckwheat, wild (Polygonum convolvulus); assay: Post-Emergent Test I herbicidal activity; conditions: for GR20 POLCO: Table 4, growth reduction of 20% of plant growth; for GR20 POLCO / GR50 POLCO / GR80 POLCO: 14 days after application, probit analysis; for GR50 POLCO: Table 4, growth reduction of 50% of plant growth; for GR80 POLCO: Table 4, growth reduction of 80% of plant growth
Outline: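 Foliar spray, 187 L/ha, track sprayer; plants at 1st–2nd true leaf, 7–21 d old. Carrier: acetone/DMSO + aqueous acetone/IPA/crop oil/Triton X-155; high rate plus ½×–1/16× dilutions. Subirrigated; visual % injury vs untreated at 14 d.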

[2] = test system: TRZAS: wheat, spring (Triticum aestivum); assay: Post-Emergent Test I herbicidal activity; conditions: for GR20 TRZAS: Table 4, growth reduction of 20% of plant growth; for GR20 TRZAS / GR50 TRZAS / GR80 TRZAS: 14 days after application, probit analysis; for GR50 TRZAS: Table 4, growth reduction of 50% of plant growth; for GR80 TRZAS: Table 4, growth reduction of 80% of plant growth
Outline: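 Greenhouse plants at first-second true leaf stage sprayed post-emergence by track sprayer at 187 L/ha with compound in acetone/DMSO/water/isopropanol carrier with crop oil concentrate and Triton X-155, top rate plus ½× to 1/16× serial rates. Injury scored visually at 14 d, 0-100% versus untreated plants; GR20, GR50, GR80 from probit analysis.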

[3] = test system: ECHOR = Echinochloa crus-galli P.B. var. oryzoides (VAS.) OHWI (early watergrass); assay: In-water applied herbicidal activity in transplanted paddy rice; conditions: 21 DAA
Experimental: (§1) Rice seeds were planted in Sun Gro MetroMix 306 planting mixture, which typically has a pH of 6.0 to 6.8 and an organic matter content of about 30 percent, in plastic plug trays. Seedlings at the second or third leaf stage of growth were transplanted into 650 mL of mud contained in 960 mL non-perforated plastic pots with a surface area of 86.59 cm^2 four days prior to herbicide application. The paddy was created by filling the 2.5 to 3 cm headspace of the pots with water. When required to ensure good germination and healthy plants, a fungicide treatment and/or other chemical or physical treatment was applied. The plants were grown for 4-14 d in a greenhouse with an approximate 14-h photoperiod which was maintained at about 29° C. during the day and 26° C. during the night. Nutrients were added as Osmocote (17:6:10, Nitrogen:Phosphorus:Potassium (N:P:K)+minor nutrients) at 2 grams (g) per cup. Water was added on a regular basis to maintain the paddy flood, and supplemental lighting was provided with overhead metal halide 1000-Watt lamps as necessary. The plants were employed for testing when they reached the second or third true leaf stage. Treatments consisted of compounds 45, 34, and 66. For technical grade compounds, a weighed amount, determined by the highest rate to be tested, was placed in an individual 120 mL glass vial and was dissolved in 20 mL of acetone to obtain concentrated stock solutions. […] The concentrated stock solutions obtained were diluted with 20 mL of an aqueous mixture containing 2.5% Agri-dex crop oil concentrate (v/v). Applications were made by injecting an appropriate amount of the stock solution into the aqueous layer of the paddy. Control plants were treated in the same manner with the solvent blank. All treated plant material received the same concentration of acetone and crop oil concentrate. The treated plants and control plants were placed in a greenhouse as described above and water was added as needed to maintain a paddy flood. After approximately 3 weeks, the condition of the test plants, compared with that of the untreated plants, was determined visually and scored on a scale of 0 to 100 percent where 0 corresponds to no injury and 100 corresponds to complete kill. By applying the well-accepted probit analysis as described by J. Berkson in Journal of the […], 48, 565 (1953) and by D. Finney in “Probit Analysis” Cambridge University Press (1952) or by plotting the mean data and fitting a logarithmic curve to the portion of the data where there was a dose response using Microsoft Excel®, the above data can be used to calculate GR50 and GR90 values, which are defined as growth reduction factors that correspond to the effective dose of herbicide required to kill or control 50 percent or 90 percent, respectively, of a target plant.

[4] = test system: FIMMI = Fimbristylis miliacea (L.) VAHL (globe fringerush); assay: as above; conditions: 21 DAA
Experimental: as §1

[5] = dose to kill or control 50 percent
[6] = dose to kill or control 90 percent

| SMILES | Visual Growth Reduction (%)-14 Days after Application POLCO ([1]; Table 4, 17.5 g ai/ha) [%] | Visual Growth Reduction (%)-14 Days after Application POLCO ([1]; Table 4, 35 g ai/ha) [%] | Visual Growth Reduction (%)-14 Days after Application POLCO ([1]; Table 4, 70 g ai/ha) [%] | Visual Growth Reduction (%)-14 Days after Application POLCO ([1]; Table 4, 140 g ai/ha) [%] | Visual Growth Reduction (%)-14 Days after Application POLCO ([1]; Table 4, 280 g ai/ha) [%] | GR20 POLCO [1] [g ai/ha] | GR50 POLCO [1] [g ai/ha] | GR80 POLCO [1] [g ai/ha] | Visual Growth Reduction (%)-14 Days after Application TRZAS ([2]; Table 4, 17.5 g ai/ha) [%] | Visual Growth Reduction (%)-14 Days after Application TRZAS ([2]; Table 4, 35 g ai/ha) [%] | Visual Growth Reduction (%)-14 Days after Application TRZAS ([2]; Table 4, 70 g ai/ha) [%] | Visual Growth Reduction (%)-14 Days after Application TRZAS ([2]; Table 4, 140 g ai/ha) [%] | Visual Growth Reduction (%)-14 Days after Application TRZAS ([2]; Table 4, 280 g ai/ha) [%] | GR20 TRZAS [2] [g ai/ha] | GR50 TRZAS [2] [g ai/ha] | GR80 TRZAS [2] [g ai/ha] | Visual Growth Reduction (%)-14 Days after Application POLCO ([1]; Table 4, 8.75 g ai/ha) [%] | Visual Growth Reduction (%)-14 Days after Application TRZAS ([2]; Table 4, 8.75 g ai/ha) [%] | other results |
| --- | --- | --- | --- | --- | --- | --- | --- | --- | --- | --- | --- | --- | --- | --- | --- | --- | --- | --- | --- |
| COC(=O)c1nc(Cl)cc(N)c1OC [Compound 1, methyl 4-amino-6-chloro-3-methoxypicolinate] | 100 | 100 | 100 | 95 | 100 | <17.5 | <17.5 | <17.5 | 0 | 0 | 0 | 0 | 0 | >280 | >280 | >280 | – | – | – |
| COC(=O)c1nc(-c2ccc(Cl)cc2F)cc(N)c1OC [Compound 6, Methyl 4-amino-6-(4-chloro-2-fluorophenyl)-3-methoxypicolinate] | 100 | – | 100 | 100 | – | 10.7 | 12.4 | 14.3 | 0 | 15 | 45 | 50 | – | 47.5 | 109 | >140 | 0 | 0 | – |
| COc1c(C(=O)O)nc(-c2ccc(Cl)c(OC)c2F)c(F)c1N [Compound 45, 4-amino-6-(4-chloro-2-fluoro-3-methoxyphenyl)-5-fluoro-3-methoxypicolinic acid] | 100 | 100 | 100 | 100 | – | <8.75 | <8.75 | <8.75 | 20 | 55 | 60 | 65 | – | 14.3 | 53.5 | >140 | 100 | 10 | – |
| COc1c(N)cc(-c2ccc(Cl)cc2)nc1C(=O)O [Compound 46] | 80 | 90 | 100 | 100 | 100 | <17.5 | <17.5 | 18.6 | 15 | 20 | 40 | 70 | 75 | 27.1 | 91.7 | 310 | – | – | – |
| COc1c(C(=O)O)nc(-c2ccc(Cl)cc2)c(F)c1N [Compound 47] | 100 | 100 | 100 | 100 | – | <8.75 | <8.75 | <8.75 | 15 | 30 | 45 | 50 | – | 30.6 | 98.6 | >140 | 100 | 0 | – |
| COc1c(C(=O)OCc2ccccc2)nc(-c2ccc(Cl)c(OC)c2F)c(F)c1N [Compound 66, benzyl 4-amino-6-(4-chloro-2-fluoro-3-methoxyphenyl)-5-fluoro-3-methoxypicolinate] | – | – | – | – | – | – | – | – | – | – | – | – | – | – | – | – | – | – | Mean Visual Injury (%)-21 Days After Application ECHOR ([3]; 2.19 g ae/ha): 0%; Mean Visual Injury (%)-21 Days After Application ECHOR ([3]; 4.38 g ae/ha): 0%; Mean Visual Injury (%)-21 Days After Application ECHOR ([3]; 8.75 g ae/ha): 8%; Mean Visual Injury (%)-21 Days After Application ECHOR ([3]; 17.5 g ae/ha): 21%; Mean Visual Injury (%)-21 Days After Application ECHOR ([3]; 35 g ae/ha): 89%; Mean Visual Injury (%)-21 Days After Application ECHOR ([3]; 70 g ae/ha): 95%; GR50 ECHOR [3, 5]: 21.2 g ae/ha; GR90 ECHOR [3, 6]: 59.0 g ae/ha; Mean Visual Injury (%)-21 Days After Application FIMMI ([4]; 2.19 g ae/ha): 0%; Mean Visual Injury (%)-21 Days After Application FIMMI ([4]; 4.38 g ae/ha): 10%; Mean Visual Injury (%)-21 Days After Application FIMMI ([4]; 8.75 g ae/ha): 36%; Mean Visual Injury (%)-21 Days After Application FIMMI ([4]; 17.5 g ae/ha): 73%; Mean Visual Injury (%)-21 Days After Application FIMMI ([4]; 35 g ae/ha): 100%; Mean Visual Injury (%)-21 Days After Application FIMMI ([4]; 70 g ae/ha): 100%; GR50 FIMMI [4, 5]: 10.3 g ae/ha; GR90 FIMMI [4, 6]: 29.7 g ae/ha |

From patent US9518018B2, “3-alkoxy, thioalkyl and amino-4-amino-6-(substituted)picolinates and their use as herbicides” (Dow AgroSciences LLC, priority 2011, dated 2016)
